According to patent publication US6500802B1, “Peptidyl-2-amino-1-hydroxyalkanesulfonic acid cysteine protease inhibitors” (Cephalon, Inc., priority 1997, dated 2002):
Converted amounts (≈) assume the structure as drawn. Counter-ions that a name gives are not always drawn. Where a SMILES comes first, the peptide text is derived from it. [ ]: non-standard residue; d: D form. The star is where a group is joined. Gly(cPent) = N[CH](C(=O)O)C1CCCC1; Cbz = O=C(OCc1ccccc1)*; Abu = CC[CH](N)C(=O)O

Molecular target: T1, Recombinant human calpain I (Homo sapiens, UniProt P07384)
T1 construct: made in house
T1 sequence (P07384 1-714): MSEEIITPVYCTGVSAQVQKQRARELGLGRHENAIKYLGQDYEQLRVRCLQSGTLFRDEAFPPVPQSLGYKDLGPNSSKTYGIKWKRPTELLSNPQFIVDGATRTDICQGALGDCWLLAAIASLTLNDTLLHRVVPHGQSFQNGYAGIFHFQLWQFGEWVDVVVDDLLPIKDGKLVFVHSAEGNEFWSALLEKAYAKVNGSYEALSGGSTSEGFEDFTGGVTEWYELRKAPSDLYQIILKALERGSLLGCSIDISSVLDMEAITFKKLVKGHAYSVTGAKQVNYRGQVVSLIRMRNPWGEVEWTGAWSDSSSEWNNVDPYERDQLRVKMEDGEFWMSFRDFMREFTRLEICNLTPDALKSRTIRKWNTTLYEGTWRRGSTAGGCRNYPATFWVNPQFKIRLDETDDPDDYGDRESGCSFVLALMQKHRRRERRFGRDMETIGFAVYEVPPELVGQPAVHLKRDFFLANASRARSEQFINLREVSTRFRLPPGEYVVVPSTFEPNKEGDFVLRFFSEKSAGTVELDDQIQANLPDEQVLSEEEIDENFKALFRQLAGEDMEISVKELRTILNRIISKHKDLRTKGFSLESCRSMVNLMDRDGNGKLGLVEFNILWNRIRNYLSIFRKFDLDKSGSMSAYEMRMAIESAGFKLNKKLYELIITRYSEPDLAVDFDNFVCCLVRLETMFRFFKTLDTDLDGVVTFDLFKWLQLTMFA
T1 sequence (P04632 1-268 partner): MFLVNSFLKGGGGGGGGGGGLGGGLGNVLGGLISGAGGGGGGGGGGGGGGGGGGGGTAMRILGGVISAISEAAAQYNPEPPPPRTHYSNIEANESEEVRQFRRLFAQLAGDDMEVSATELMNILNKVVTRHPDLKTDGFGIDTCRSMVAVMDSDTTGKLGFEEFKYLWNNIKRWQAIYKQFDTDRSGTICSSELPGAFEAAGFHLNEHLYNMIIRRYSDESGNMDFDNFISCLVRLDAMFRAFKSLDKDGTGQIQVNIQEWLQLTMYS
Assay: Inhibition of calpain I activity (Succ-Leu-Tyr-MNA hydrolysis)
Format: biochemical
Conditions: 0.2 mM Succ-Leu-Tyr-MNA, pH 7.5
Procedure: To evaluate inhibitory activity, stock solutions (40 concentrated) of each compound to be tested were prepared in 100% anhydrous DMSO and 5 μl of each inhibitor preparation were aliquoted into each of three wells of a 96-well plate. Recombinant human calpain I, prepared by the of Meyer et al. (Biochem. J. 1996, 314: 511-519), was into assay buffer (i.e., 50 mM Tris, 50 mM NaCl, 1 mM EDTA, 1 mM EGTA, and 5 mM β-mercaptoethanol, pH 7.5, including 0.2 mM Succ-Leu-Tyr-MNA), and 175 μl was aliquoted into the same wells containing the independent inhibitor stocks as well as to positive control wells which contained 5 μl DMSO, but no compound. To start the reaction, 20 μl of 50 mM CaCl2 in assay buffer was added to all wells of the plate, excepting three, which were used as background signal baseline controls. Substrate hydrolysis was monitored every 5 minutes for a total of 30 minutes. Substrate hydrolysis in the absence of inhibitor was linear for up to 15 minutes.
Inhibition of calpain I activity was calculated as the percent decrease in the rate of substrate hydrolysis in the presence of inhibitor relative to the rate in its absence. Comparison between the inhibited and control rates was made within the linear range for substrate hydrolysis. The IC50 values for inhibitors (concentration yielding 50% inhibition) were determined from the percent decrease in rates of substrate hydrolysis in the presence of five to seven different concentrations of the test compound. The results were plotted as percent inhibition versus log inhibitor concentration, and the IC50 was calculated by fitting the data to the four-parameter logistic equation shown below using the program GraphPad Prism (GraphPad Software, Inc., San Diego, Calif.).
In the equation above, the parameters a, b, c, and d are defined as follows: a is % inhibition in the absence of inhibitor, b is the slope, c is the IC50, and d is the % inhibition at an infinite concentration of inhibitor.

Compound | IC50 [nM]
CC(C)[C@H](NC(=O)OCc1ccccc1)C(=O)NC(Cc1ccccc1)C(O)S(=O)(=O)O (stereo partly drawn) [Compound 1, Benzyloxycarbonyl-L-valyl-2-amino-1-hydroxy-3-phenylpropanesulfonic acid sodium Salt] | 10
O=C(N[C@H](C(=O)NC(Cc1ccccc1)C(O)S(=O)(=O)O)C1CCCC1)OCc1ccccc1 (stereo partly drawn) [Compound 3, Benzyloxycarbonyl-L-cyclopentylglycyl-2-amino-1-hydroxy-3-phenylpropanesulfonic acid sodium Salt] | 15
Tetrahydroisoquinoline-2-carbonyl-L-leucyl-2-amino-1-hydroxy-3-phenylpropanesulfonic acid sodium Salt [Compound 2] | 32

Test system: not listed separately
Assay: Solubility of inhibitors in Locke's buffer
Format: physicochemical
Conditions: Locke's buffer pH 7.4; sulfonic acids: buffer added to weighed sample at 20° C.; control aldehydes: by UV absorption of filtrate

Compound | Solubility [µg/mL]
O=CC(Cc1ccccc1)NC(=O)C(NC(=O)OCc1ccccc1)C1CCCC1 (stereo not drawn) [Cbz-CyclopentylGly-Phe-H] (Cbz-[Gly(cPent)]-Phe-aldehyde; configuration not given here) | 80 (≈ 196 µM)
CCC(C=O)NC(=O)C(CC(C)C)NC(=O)OCc1ccccc1 (stereo not drawn) [Cbz-Leu-Abu-H] (Cbz-Leu-[Abu]-aldehyde; configuration not given here) | 210 (≈ 628 µM)
CC(C)[C@H](NC(=O)OCc1ccccc1)C(=O)N[C@H](C=O)Cc1ccccc1 [Cbz-Val-Phe-H] (Cbz-Val-Phe-aldehyde) | 180 (≈ 471 µM)
CC(C)C[C@H](NC(=O)N1CCc2ccccc2C1)C(=O)N[C@H](C=O)Cc1ccccc1 [THIQ-2-CO-Leu-Phe-H] | 180 (≈ 427 µM)
